Reference: patent US4735792A, “Radioiodinated maleimides and use as agents for radiolabeling antibodies” (The United States of America as represented by the United …, priority 1987, dated 1988)
Where two headings read alike, the source gives them in different places.

What was measured:
albumin = test: Preliminary studies of binding with albumin
[1] = Tissue distribution of radioactivity after intravenous administration in rats; assay type: in vivo, female Fischer 344 rats (printed "femal Fischer 344 rats"); settings: for tissue uptake at 5 min / tissue uptake at 0.5 h / tissue uptake at 1 h: rat, iv; for tissue uptake at 5 min: 5 min after i.v. injection; for tissue uptake at 0.5 h: 30 min after i.v. injection; for tissue uptake at 1 h: 60 min after i.v. injection; for binding with the blood, tissue distribution (in words) / thyroid uptake / thyroid levels of radioactivity (in words): rats; for thyroid uptake / thyroid levels of radioactivity (in words): indicative of in vivo stability of radiolabel toward deiodination
Protocol: 4-[^125 I]iodoaniline (7.4 mCi sp. act. 700 mCi/mmol) prepared following structure described in Step 1 of Example 1 was coupled with maleic anhydride (9.5 mg) in glacial acetic acid (0.15 ml) at room temperature. The radioiodinated compound, [^125 I]3 isolated by silica gel column chromatography was refluxed with acetic anhydride
The distribution of radiactivity in tissues of femal Fischer 344 rats
(§1) after intravenous administration of [^125 I]4.^a
^a Animals had body weight range of 121-139 gm. Each animal received
3.7 ^o Ci of [^125 I]4 by tail vein injection.
The distribution of radioactivity in tissues of femal Fischer 344 rats
as §1
(75mg) and anhydrous (fused) sodium acetate (12 mg) in benzene (1.0 ml) for 3 h. The product, [^125 I]4 (3.99 mCi, 56 percent radiochemical yield based on [^125 I]3), was isolated by silica gel column chromatography. The radioactive compound [^125 I]4 was identical with an unlabeled sample of 4.

red blood cells = test: Blood fractionation (plasma, red and white blood cells) studies; assay type: in vivo, rat; settings: rats injected with [^125 I]4
Text: Blood fractionation (plasma, red and white blood cells) studies indicated 88.9% of the blood activity to be associated with red blood cells.

platelet proteins = test: Preliminary studies of binding with platelet proteins
human γ-globulin = test: Binding to human γ-globulin (activity remaining in aqueous portion after ether extraction; TLC); settings: TLC of aqueous portion, radioactivity with a polar band
Protocol: (§2) Samples of bovine albumin (45 mg/ml, 10 ml) and human γ-globulin (6.7 mg/ml. 10 ml) were prepared in phosphate buffer and 0.15 NaCl solution (PBS). A 10 ml sample of PBS was used as control. [^125 I]-IPM (10 μCi) in 100 λ DMSO was added to each sample and incubated for 30 min at 37° C. The samples were repeatedly extracted with ethyl ether. The unbound activity as [^125 I]-IPM was extracted with ethyl ether. The activity remaining in the aqueous portion was considered to be bound with the proteins.

[2] = as above; settings: gamma-globulin in pbs; human γ-globulin 6.7 mg/ml in PBS, 30 min at 37° C., after ether extraction; read-out: activity remaining in the aqueous portion (bound with protein), γ-globulin (converted)
Protocol: as §2

IgG = test: Preliminary studies of binding with IgG
[3] = Binding to bovine albumin (activity remaining in aqueous portion after ether extraction; TLC); settings: bovine albumin 45 mg/ml in PBS, 30 min at 37° C., after ether extraction; read-out: activity remaining in the aqueous portion (bound with protein), albumin (converted)
Protocol: as §2

bovine albumin = test: as above; settings: TLC of aqueous portion, radioactivity with a polar band
Protocol: as §2

[4] = blood, Table 1, blood, read-out: Mean percent injected dose/gm, Blood
[5] = blood, Table 2, blood, read-out: Mean percent injected dose/gm, Blood
[6] = heart, Table 1, heart, read-out: Mean percent injected dose/gm, Heart
[7] = heart, Table 2, heart, read-out: Mean percent injected dose/gm, Heart
[8] = kidneys, Table 1, kidneys, read-out: Mean percent injected dose/gm, Kidneys
[9] = kidneys, Table 2, kidneys, read-out: Mean percent injected dose/gm, Kidneys
[10] = liver, Table 1, liver, read-out: Mean percent injected dose/gm, Liver
[11] = liver, Table 2, liver, read-out: Mean percent injected dose/gm, Liver
[12] = lungs, Table 1, lungs, read-out: Mean percent injected dose/gm, Lungs
[13] = lungs, Table 2, lungs, read-out: Mean percent injected dose/gm, Lungs
[14] = thyroid, Table 1, thyroid, read-out: Mean percent injected dose/gm, Thyroid
[15] = thyroid, Table 2, thyroid, read-out: Mean percent injected dose/gm, Thyroid

Structure (SMILES): O=C1C=CC(=O)N1c1ccc([125I])cc1 [[^125 I]4, N-(p-[^125 I]iodophenyl)maleimide]
- binding with albumin (in words) (albumin): appears to bind
- tissue uptake at 5 min [1, 4]: 8.84 %ID/g
- tissue uptake at 0.5 h [1, 4]: 8.44 %ID/g
- tissue uptake at 1 h [1, 4]: 7.56 %ID/g
- tissue uptake at 5 min [1, 5]: 57.6 %ID/g
- tissue uptake at 0.5 h [1, 5]: 54.1 %ID/g
- tissue uptake at 1 h [1, 5]: 48.6 %ID/g
- tissue uptake at 5 min [1, 6]: 1.45 %ID/g
- tissue uptake at 0.5 h [1, 6]: 1.81 %ID/g
- tissue uptake at 1 h [1, 6]: 1.74 %ID/g
- tissue uptake at 5 min [1, 7]: 0.61 %ID/g
- tissue uptake at 0.5 h [1, 7]: 0.79 %ID/g
- tissue uptake at 1 h [1, 7]: 0.74 %ID/g
- tissue uptake at 5 min [1, 8]: 2.15 %ID/g
- tissue uptake at 0.5 h [1, 8]: 2.12 %ID/g
- tissue uptake at 1 h [1, 8]: 2.07 %ID/g
- tissue uptake at 5 min [1, 9]: 2.17 %ID/g
- tissue uptake at 0.5 h [1, 9]: 2.18 %ID/g
- tissue uptake at 1 h [1, 9]: 2.21 %ID/g
- tissue uptake at 5 min [1, 10]: 1.9 %ID/g
- tissue uptake at 0.5 h [1, 10]: 1.73 %ID/g
- tissue uptake at 1 h [1, 10]: 1.5 %ID/g
- tissue uptake at 5 min [1, 11]: 10.2 %ID/g
- tissue uptake at 0.5 h [1, 11]: 7.85 %ID/g
- tissue uptake at 1 h [1, 11]: 7.05 %ID/g
- tissue uptake at 5 min [1, 12]: 2.04 %ID/g
- tissue uptake at 0.5 h [1, 12]: 2.52 %ID/g
- tissue uptake at 1 h [1, 12]: 2.31 %ID/g
- tissue uptake at 5 min [1, 13]: 1.76 %ID/g
- tissue uptake at 0.5 h [1, 13]: 1.89 %ID/g
- tissue uptake at 1 h [1, 13]: 1.74 %ID/g
- tissue uptake at 5 min [1, 14]: 13.7 %ID/g
- tissue uptake at 0.5 h [1, 14]: 21.7 %ID/g
- tissue uptake at 1 h [1, 14]: 20.5 %ID/g
- tissue uptake at 5 min [1, 15]: 0.13 %ID/g
- tissue uptake at 0.5 h [1, 15]: 0.2 %ID/g
- tissue uptake at 1 h [1, 15]: 0.19 %ID/g
- binding with the blood, tissue distribution (in words) [1]: high levels of radioactivity were associated with the blood
- thyroid uptake / thyroid levels of radioactivity (in words) ([1]; listed as IPM): consistently low
- thyroid uptake / thyroid levels of radioactivity (in words) ([1]; listed as maleimide agent): low
- binding with the blood, tissue distribution (in words) ([1]; listed as IPM): preferential binding
- binding with the blood, tissue distribution (in words) ([1]; listed as maleimide agent): preferential binding with the blood
- blood activity associated with red blood cells (red blood cells): 88.9%
- binding with platelet proteins (in words) (platelet proteins): appears to bind
- binding with γ-globulin by TLC (in words) (human γ-globulin): significant binding
- fraction unbound at 0.5 h [2]: ~0.6
- binding with IgG (in words) (IgG): appears to bind
- fraction unbound at 0.5 h [3]: ~0.4
- binding with albumin by TLC (in words) (bovine albumin): significant binding
